Laboratory results: PubChem BioAssay (NCI)
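Results reflect a 48-hour exposure of cells in 96-well plates to compound at five concentrations. GI50: concentration for 50% inhibition of growth. TGI: total growth inhibition.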

Tests used:
Test in all cases: inhibition of tumour cell growth, NCI panel, 48 h
OVCAR-8 ovarian = tested on: OVCAR-8 ovarian
DU-145 prostate = tested on: DU-145 prostate
SNB-75 CNS = tested on: SNB-75 CNS
EKVX NSCLC = tested on: EKVX NSCLC
HT29 colon = tested on: HT29 colon
NCI-H23 lung = tested on: NCI-H23 lung
CCRF-CEM leukemia = tested on: CCRF-CEM leukemia
NCI-H226 lung = tested on: NCI-H226 lung
MDA-MB-231 breast = tested on: MDA-MB-231 breast
UACC-257 melanoma = tested on: UACC-257 melanoma
SNB-19 CNS = tested on: SNB-19 CNS
M14 melanoma = tested on: M14 melanoma
SK-MEL-5 melanoma = tested on: SK-MEL-5 melanoma
SF-539 CNS = tested on: SF-539 CNS
COLO 205 colon = tested on: COLO 205 colon
SN12C renal = tested on: SN12C renal
SK-MEL-28 melanoma = tested on: SK-MEL-28 melanoma
NCI/ADR-RES ovarian = tested on: NCI/ADR-RES ovarian
K-562 leukemia = tested on: K-562 leukemia
HL-60(TB) leukemia = tested on: HL-60(TB) leukemia
OVCAR-4 ovarian = tested on: OVCAR-4 ovarian
LOX IMVI melanoma = tested on: LOX IMVI melanoma
HCC-2998 colon = tested on: HCC-2998 colon
OVCAR-5 ovarian = tested on: OVCAR-5 ovarian
ACHN renal = tested on: ACHN renal
HCT-15 colon = tested on: HCT-15 colon
BT-549 breast = tested on: BT-549 breast
A498 renal = tested on: A498 renal
MCF7 breast = tested on: MCF7 breast
RXF 393 renal = tested on: RXF 393 renal
SW-620 colon = tested on: SW-620 colon
TK-10 renal = tested on: TK-10 renal
HOP-92 NSCLC = tested on: HOP-92 NSCLC
SF-295 CNS = tested on: SF-295 CNS
HS 578T breast = tested on: HS 578T breast
CAKI-1 renal = tested on: CAKI-1 renal
NCI-H522 lung = tested on: NCI-H522 lung
MALME-3M melanoma = tested on: MALME-3M melanoma
T-47D breast = tested on: T-47D breast
IGROV1 ovarian = tested on: IGROV1 ovarian
KM12 colon = tested on: KM12 colon
SK-MEL-2 melanoma = tested on: SK-MEL-2 melanoma
RPMI-8226 leukemia = tested on: RPMI-8226 leukemia
786-0 renal = tested on: 786-0 renal
OVCAR-3 ovarian = tested on: OVCAR-3 ovarian
MDA-MB-435 = tested on: MDA-MB-435
UO-31 renal = tested on: UO-31 renal
UACC-62 melanoma = tested on: UACC-62 melanoma
SK-OV-3 ovarian = tested on: SK-OV-3 ovarian
HCT-116 colon = tested on: HCT-116 colon
A549 NSCLC = tested on: A549 NSCLC
SF-268 CNS = tested on: SF-268 CNS
NCI-H460 lung = tested on: NCI-H460 lung
U251 CNS = tested on: U251 CNS
PC-3 prostate = tested on: PC-3 prostate
HOP-62 NSCLC = tested on: HOP-62 NSCLC

COc1ccccc1CNC(=O)/C=C/c1ccc(O)c(O)c1
GI50 (OVCAR-8 ovarian): 75.7 µM | TGI (OVCAR-8 ovarian): > 100 µM | GI50 (DU-145 prostate): 82.4 µM | TGI (DU-145 prostate): > 100 µM | GI50 (SNB-75 CNS): 86.5 µM | TGI (SNB-75 CNS): > 100 µM | GI50 (EKVX NSCLC): 48.2 µM | TGI (EKVX NSCLC): > 100 µM | GI50 (HT29 colon): 50.5 µM | TGI (HT29 colon): > 100 µM | GI50 (NCI-H23 lung): 77.6 µM | TGI (NCI-H23 lung): > 100 µM | GI50 (CCRF-CEM leukemia): 18.2 µM | TGI (CCRF-CEM leukemia): > 100 µM | GI50 (NCI-H226 lung): 51.8 µM | TGI (NCI-H226 lung): > 100 µM | GI50 (MDA-MB-231 breast): 22.6 µM | TGI (MDA-MB-231 breast): > 100 µM | GI50 (UACC-257 melanoma): 84.6 µM | TGI (UACC-257 melanoma): > 100 µM | GI50 (SNB-19 CNS): 48.2 µM | TGI (SNB-19 CNS): > 100 µM | GI50 (M14 melanoma): 72.4 µM | TGI (M14 melanoma): > 100 µM | GI50 (SK-MEL-5 melanoma): 56.8 µM | TGI (SK-MEL-5 melanoma): > 100 µM | GI50 (SF-539 CNS): 22.2 µM | TGI (SF-539 CNS): 65.9 µM | GI50 (COLO 205 colon): 24.4 µM | TGI (COLO 205 colon): > 100 µM | GI50 (SN12C renal): 68.6 µM | TGI (SN12C renal): > 100 µM | GI50 (SK-MEL-28 melanoma): 89 µM | TGI (SK-MEL-28 melanoma): > 100 µM | GI50 (NCI/ADR-RES ovarian): 66 µM | TGI (NCI/ADR-RES ovarian): > 100 µM | GI50 (K-562 leukemia): 39.6 µM | TGI (K-562 leukemia): > 100 µM | GI50 (HL-60(TB) leukemia): 45.2 µM | TGI (HL-60(TB) leukemia): > 100 µM | GI50 (OVCAR-4 ovarian): 40 µM | TGI (OVCAR-4 ovarian): > 100 µM | GI50 (LOX IMVI melanoma): 26.3 µM | TGI (LOX IMVI melanoma): > 100 µM | GI50 (HCC-2998 colon): 34.6 µM | TGI (HCC-2998 colon): > 100 µM | GI50 (OVCAR-5 ovarian): > 100 µM | TGI (OVCAR-5 ovarian): > 100 µM | GI50 (ACHN renal): 24.5 µM | TGI (ACHN renal): > 100 µM | GI50 (HCT-15 colon): 15.6 µM | TGI (HCT-15 colon): 86.3 µM | GI50 (BT-549 breast): 40.2 µM | TGI (BT-549 breast): > 100 µM | GI50 (A498 renal): > 100 µM | TGI (A498 renal): > 100 µM | GI50 (MCF7 breast): > 100 µM | TGI (MCF7 breast): > 100 µM | GI50 (RXF 393 renal): 54.9 µM | TGI (RXF 393 renal): > 100 µM | GI50 (SW-620 colon): > 100 µM | TGI (SW-620 colon): > 100 µM | GI50 (TK-10 renal): 17.9 µM | TGI (TK-10 renal): > 100 µM | GI50 (HOP-92 NSCLC): 48.4 µM | TGI (HOP-92 NSCLC): > 100 µM | GI50 (SF-295 CNS): > 100 µM | TGI (SF-295 CNS): > 100 µM | GI50 (HS 578T breast): > 100 µM | TGI (HS 578T breast): > 100 µM | GI50 (CAKI-1 renal): 30.3 µM | TGI (CAKI-1 renal): > 100 µM | GI50 (NCI-H522 lung): 22.7 µM | TGI (NCI-H522 lung): > 100 µM | GI50 (MALME-3M melanoma): 50.3 µM | TGI (MALME-3M melanoma): > 100 µM | GI50 (T-47D breast): 43.4 µM | TGI (T-47D breast): > 100 µM | GI50 (IGROV1 ovarian): 22.9 µM | TGI (IGROV1 ovarian): > 100 µM | GI50 (KM12 colon): 59.4 µM | TGI (KM12 colon): > 100 µM | GI50 (SK-MEL-2 melanoma): > 100 µM | TGI (SK-MEL-2 melanoma): > 100 µM | GI50 (RPMI-8226 leukemia): 34.7 µM | TGI (RPMI-8226 leukemia): > 100 µM | GI50 (786-0 renal): 76.1 µM | TGI (786-0 renal): > 100 µM | GI50 (OVCAR-3 ovarian): 67.3 µM | TGI (OVCAR-3 ovarian): > 100 µM | GI50 (MDA-MB-435): 58.3 µM | TGI (MDA-MB-435): > 100 µM | GI50 (UO-31 renal): 20.5 µM | TGI (UO-31 renal): > 100 µM | GI50 (UACC-62 melanoma): 34.8 µM | TGI (UACC-62 melanoma): > 100 µM | GI50 (SK-OV-3 ovarian): 38.2 µM | TGI (SK-OV-3 ovarian): > 100 µM | GI50 (HCT-116 colon): 52.6 µM | TGI (HCT-116 colon): > 100 µM | GI50 (A549 NSCLC): 64.3 µM | TGI (A549 NSCLC): > 100 µM | GI50 (SF-268 CNS): 90.7 µM | TGI (SF-268 CNS): > 100 µM | GI50 (NCI-H460 lung): 45.9 µM | TGI (NCI-H460 lung): > 100 µM | GI50 (U251 CNS): 42 µM | TGI (U251 CNS): > 100 µM | GI50 (PC-3 prostate): > 100 µM | TGI (PC-3 prostate): > 100 µM | GI50 (HOP-62 NSCLC): 61.9 µM | TGI (HOP-62 NSCLC): > 100 µM
